Laboratory results taken from EP1247803A2, “Indolinone compounds suitable for modulation of protein kinases” (Sugen, Inc., priority 1996, dated 1998).

Target: T1, EGFR (Homo sapiens, UniProt P00533)
T1 construct: Add 7 ug A431 cell lysate per well (EGFR source); endogenous in cells; host or cells: A431
Test: EGFR ELISA assay (in vitro kinase activity, EGFR captured from A431 cell lysate)
Format: biochemical
Set-up: concentration or dose not given beside the values
Procedure, shortened: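 Receptor autophosphorylation was read by ELISA: anti-phosphotyrosine serum and an HRP-linked secondary with ABTS substrate, absorbance at 410 nm (reference 630 nm). The reaction ran 5 min with 3 µM ATP and 5 mM MnCl2 and was quenched by 20 mM EDTA. Compounds were first incubated 30 min with antibody-captured EGFR from A431 cell lysate.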

T1 sequence (P00533 25-1210): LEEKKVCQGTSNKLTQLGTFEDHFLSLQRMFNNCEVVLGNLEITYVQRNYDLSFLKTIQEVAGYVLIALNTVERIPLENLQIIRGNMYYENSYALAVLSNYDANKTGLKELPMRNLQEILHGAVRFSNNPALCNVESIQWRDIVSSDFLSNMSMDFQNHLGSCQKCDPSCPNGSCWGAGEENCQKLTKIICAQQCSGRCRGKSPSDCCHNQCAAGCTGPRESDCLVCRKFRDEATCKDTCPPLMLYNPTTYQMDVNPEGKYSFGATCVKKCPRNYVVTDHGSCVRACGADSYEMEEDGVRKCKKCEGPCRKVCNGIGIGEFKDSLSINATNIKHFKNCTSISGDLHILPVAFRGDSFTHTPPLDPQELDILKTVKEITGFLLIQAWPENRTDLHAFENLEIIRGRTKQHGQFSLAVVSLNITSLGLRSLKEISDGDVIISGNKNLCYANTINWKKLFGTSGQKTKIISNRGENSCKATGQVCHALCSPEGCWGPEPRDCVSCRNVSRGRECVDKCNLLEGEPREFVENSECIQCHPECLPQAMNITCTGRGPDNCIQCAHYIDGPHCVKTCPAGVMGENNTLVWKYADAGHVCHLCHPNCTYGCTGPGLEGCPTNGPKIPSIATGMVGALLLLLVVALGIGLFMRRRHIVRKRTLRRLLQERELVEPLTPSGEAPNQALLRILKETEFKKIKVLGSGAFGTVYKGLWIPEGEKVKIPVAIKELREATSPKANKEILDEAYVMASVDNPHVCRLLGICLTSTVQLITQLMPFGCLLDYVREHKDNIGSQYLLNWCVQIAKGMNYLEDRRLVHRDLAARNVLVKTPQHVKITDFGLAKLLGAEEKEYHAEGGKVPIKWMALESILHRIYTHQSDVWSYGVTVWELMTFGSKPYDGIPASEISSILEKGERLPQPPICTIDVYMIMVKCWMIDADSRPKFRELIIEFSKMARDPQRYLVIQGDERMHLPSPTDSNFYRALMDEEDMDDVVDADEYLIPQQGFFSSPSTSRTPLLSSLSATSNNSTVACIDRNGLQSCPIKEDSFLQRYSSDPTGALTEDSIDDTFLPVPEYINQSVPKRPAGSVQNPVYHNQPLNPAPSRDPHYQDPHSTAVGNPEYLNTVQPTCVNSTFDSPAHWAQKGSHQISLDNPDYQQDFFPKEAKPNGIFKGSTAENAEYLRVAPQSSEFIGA

Row | Structure (SMILES) | Biochem EGFR %Inhibition [%]
1 | O=C1Nc2ccc(S(=O)(=O)Nc3ccc(C(F)(F)F)cc3)cc2C1=Cc1c(Br)cnn1-c1ccc(Cl)cc1 [10725/E10] | 6.1
2 | O=C1Nc2ccc(CCCl)cc2C1=Cc1c(Br)cnn1-c1ccc(Cl)cc1 [10725/G10] | 17.8
3 | CNS(=O)(=O)c1ccc2c(c1)C(=Cc1c[nH]cn1)C(=O)N2 [10725/D11] | -12.5
4 | CCc1ccc(C=C2C(=O)Nc3c(Br)cc(Br)cc32)s1 [10726/A10] | 26.5
5 | CNS(=O)(=O)c1ccc2c(c1)C(=Cc1c(O)cc(C)cc1OC)C(=O)N2 [10725/D06] | -26.4
6 | COc1ccc(Br)c(C=C2C(=O)Nc3ccc(S(=O)(=O)N4CCOCC4)cc32)c1O [10725/F03] | -36.2
7 | Cc1cn(C)cc1C=C1C(=O)Nc2c(Br)cc(Br)cc21 [10726/A06] | 0.2
8 | Cc1cn(C)cc1C=C1C(=O)Nc2ccc(Br)c(C)c21 [10726/C06] | -0.9
9 | CCc1ccc(C=C2C(=O)Nc3ccc(I)cc32)s1 [10726/B10] | 40.8
